Experimental data published in US20040013649A1, “Cancer vaccines and methods of using the same” (Inex Pharmaceuticals Corporation, priority 2002, published 2004).
Entries after “also recorded” stand apart in the source; their conditions may differ. [5mC] = 5-methylcytosine

Assays:
dendritic cells [1] = test: in vivo dendritic cell activation (IFN-γ secreting cells); details: encapsulated in POPC:CHOL:DODMA:PEGDMG 20:45:25:10
Procedure: PBS was used as a control.
FIG. 3 clearly illustrates the ability of encapsulated ODN1m to activate dendritic cells. […] Dendritic cell activation was measured by the percentage of IFN-γ secreting cells. These cells were labeled with an antibody to indicate the cell type and only those having the dendritic cell marker were included in this measurement.

dendritic cells [2] = test: expansion of dendritic cells (CD11c, DEC205) in spleen, blood and lymph nodes; assay type: in vivo, ICR mice; details: lipid encapsulated; single i.v. injection 20 mg/kg; versus PBS control = 100%; 20 mg/kg
Procedure: (§1) ICR mice were immunized with a single intravenous injection of encapsulated oligonucleotides at a dose of 20 mg/kg and the control ICR mouse was injected with PBS. […] Each of these markers are specific to dendritic cells though they may represent different cell sub-populations. In each of FIGS. 4 and 5 the control was plotted as equivalent to 100% and the effect of ODN1m for each backbone configuration was plotted as a percentage of that control.

dendritic cells [3] = test: activation of dendritic cells (CD86 co-expression); assay type: in vivo, ICR mice; details: lipid encapsulated, single i.v. injection 20 mg/kg, versus PBS control = 100%
Procedure: as §1
On collection of the samples the cells were first analyzed by flow cytometry for the co-expression of CD86, which indicates cell activation, and the dendritic cell phenotype markers CD11c and DEC205. The percentage of activated dendritic cells was plotted against a PBS control equivalent to 100%. […] Similar results are shown when measuring DEC205 positive dendritic cells in FIG. 5 panels.

[4] = tested on: EG.7 Ova expressing tumor cells; test: prophylactic anti-tumor efficacy, EG7-OVA tumor model, q7d×3; assay type: in vivo, C57BI/6 mice
Procedure: Efficacy studies. E.G7-OVA or EL-4 thymoma cell lines were used throughout the study. These cells were cultured in vitro according to established methods. […] Tumor measurements were made by repeated perpendicular measurements of tumor dimensions and using the formula: […]
Anti-tumor efficacy induced by subcutaneous immunization was assessed in C57BI/6 (5 animals per group) in a prophylactic immunization model. Mice were immunized subcutaneously with 3 injections on a q7d×3 dosing regimen on Days 0, 7 and 14 at a dose of 100 μg oligonucleotide and 20 μg of OVA antigen dose. […] Mice were monitored 3 times weekly to assess tumor growth and weight gain. Control mice were injected with one of PBS or HBS and […] of OVA antigen on the same schedule described above. Oligonucleotides were encapsulated in a lipid particle having a lipid composition of one of POPC: CHOL: DODAP:PEGCer14 or DSPC: CHOL: DODAP:PEGCer14 each in a ratio of 25:45:20:10. All comparisons of methylated and unmethylated oligonucleotides were done using like lipid particles. Results from these efficacy experiments are detailed in FIGS. 12-15, 18-21, and 25-28. Day 0 on each of the Figures is the day each animal was challenged with the tumor.

B16/BL6 murine melanoma = test: therapeutic anti-tumor efficacy, B-16 melanoma tumor model; assay type: in vivo, C57BI/6 mice; details: lipid encapsulated (DSPC:CHOL:DODAP:PEGCer14); 20 mg/kg ODN i.v. every other day from day 4
Procedure: Anti-tumor efficacy induced by intravenous tail immunization was assessed in C57BI/6 (8 animals per group) in a therapeutic immunization model. Animals were challenged with a subcutaneous injection of 3.0×10^5 […] B16/BL6 murine melanoma expressing tumor cells on Day-0. Mice were then treated intravenously every other day starting on day 4 for 14 days at a dose of 20 mg/kg ODN. Mice were monitored every other day to assess tumor growth and weight gain. Control mice were injected with HBS on the same schedule described above. Oligonucleotides were encapsulated in a lipid particle having a lipid composition of DSPC: CHOL: DODAP:PEGCer14 each in a ratio of 25:45:20:10. Results from this efficacy experiments are detailed in FIGS. 16 and 17. Day 0 on each of the Figures is the day each animal was challenged with the tumor.

B16 cell target = test: CTL response to B16 cell target after multiple epitope immunization; assay type: in vivo, C57BL/6 mice; details: encapsulated PS-ODN 1m (POPC:Chol:DODMA:PEG-DMG) with TRP2 and Gp100 peptides or B16 lysate; 3 injections
Procedure: Targeting multiple antigens and MHC alleles might be achieved by using multiple recombinant antigen mixtures of synthetic peptide epitopes. To improve the immune response against these multi-epitope antigens several adjuvants are under assay. This experiment employs encapsulated PS-ODN 1 m using POPC:Chol:DODMA:PEG-DMG (25:45:20:10 molar ratio) in combination with two murine melanoma antigens TRP2 (H2Kb, […]) and Gp100 (H2Db, […]). C57BL/6 mice were injected 3 times with either each antigen, or both, in the presence of encapsulated PS-ODN 1 m. As positive control we used dendritic cells known to be potent in inducing CTL responses. B16 lysate containing multiple epitopes was also assayed either with ODN1m or DC for the ability to induce multi-epitope immunity. Immune response was assessed by the ability of CD8+ T cells to mediate cytotoxicity against tumor cells in an antigen-specific manner.

## ODN1m: 5′-TAAZGTTGAGGGGCAT-3, SEQ ID NO: 4, Z = methylated cytosine (DNA TAACGTTGAGGGGCAT; DNA, [5mC] at 4, backbone not given here; tested with both phosphodiester and phosphorothioate backbones)
Dendritic cells [1]
  dendritic cell activation (percentage of IFN-γ secreting cells): more active than its unmethylated counterpart; also recorded: more active than the unmethylated counterpart ODN1
Dendritic cells [2]
  expansion of CD11c positive dendritic cells: stimulated the expansion of CD11c positive dendritic cells in spleen cells and whole blood cells but not in lymphoid tissue; also recorded: stimulated the expansion of CD11c positive cells in spleen and whole blood
Dendritic cells [3]
  CD86 expression on dendritic cells: induced CD86 expression on CD11c positive dendritic cells; also recorded: more active than the unmethylated counterpart ODN1
[4]; free ODN, 100 μg ODN + 20 μg OVA s.c. q7d×3, tumor challenge Day 21
  reduction in tumor growth: approached the rate of the control animal
[4]; lipid encapsulated ODN, PO backbone, 100 μg ODN + 20 μg OVA s.c. q7d×3
  reduction in tumor growth: therapeutic efficacy was greatest with the methylated version 32 days after transplantation
[4]; lipid encapsulated ODN, PS backbone, 100 μg ODN + 20 μg OVA s.c. q7d×3
  reduction in tumor growth: equal in therapeutic efficacy in comparison to the unmethylated ODN1; also recorded: improved efficacy
[4]; lipid encapsulated ODN, FIG. 19A
  percentage of tumor free animals: greater percentage of tumor free animals
[4]; lipid encapsulated ODN, FIG. 19B
  number of animals remaining in the study: essentially identical throughout the study
[4]; lipid encapsulated ODN, versus unmethylated counterpart
  survival rate of mice: increase in the survival rate
B16/BL6 murine melanoma
  reduction of tumor volume: increased its efficacy in reducing tumor volume
B16 cell target
  CTL response: a CTL response was raised against both antigens
